Reference: patent publication US20250144054A1, “SMALL MOLECULE STAT3 INHIBITOR FOR TREATING TRIPLE NEGATIVE BREAST CANCER” (UNIVERSITY OF MARYLAND, BALTIMORE, priority 2022, published 2025)

Assays:
MDA-MB-231 cells [1] = experiment: Wound healing assay, MDA-MB-231 cells; type: cell-based, human; details: MDA-MB-231, vs DMSO
Method: (§1) Wound healing assay. MDA-MB-231, SUM159, and 4T1 cells were seeded in a 6-well plate and cultured until fully confluent. A straight scratch crossing the monolayer was created using a 200 μl pipette tip and images of scratched areas were taken. Next, cells were treated with DMSO or LLL12B. Then, images were taken until the scratch of DMSO-treated cells was closed and the relative migration (%) was calculated.
Given the relevance between cancer cell migration and metastasis, cell migration was evaluated using wound healing assay following LLL12B and Talazoparib treatment.
In FIG. 12, L: LLL12B; T: Talazoparib; L0.5:0.5 μM LLL12B; L0.25:0.25 μM LLL12B; T0.5:0.5 μM Talazoparib; T10: 10 μM Talazoparib. In FIG. 13, L: LLL12B; T: Talazoparib; L0.5:0.5μ M LLL12B; T10: 10μ M Talazoparib; T20: 20μ M Talazoparib. In FIG. 14, L: LLL12B; T: Talazoparib; L0.5:0.5μ M LLL12B; T10: 10μ M Talazoparib; T20: 20μ M Talazoparib.
L: LLL12B; A: Abemaciclib; L0.5:0.5 μM LLL12B; A2.5:2.5 μM Abemaciclib; A1: 1 μM Abemaciclib

ovarian cancer cells = details: ref [45]; cited from earlier work
4T1 cells = experiment: Wound healing assay, 4T1 cells; type: cell-based, murine; details: 4T1, vs DMSO
Method: as §1

MDA-MB-231 cells [2] = experiment: Annexin V and PI flow cytometry, MDA-MB-231 cells; type: cell-based, human; details: MDA-MB-231, 8-12 hours, vs DMSO
Method: Flow cytometry analysis. Flow cytometry was performed to detect cell apoptosis. The APC Annexin V Apoptosis Detection Kit (Biolegend, San Diego, CA, USA) was used for Annexin V staining. Cells were seeded in a 35 mm culture dish at a density of 1×10^5 cells/dish. After overnight incubation, cells were treated with DMSO or LLL12B for 8-12 hours. Cells were harvested and stained with Annexin V-APC and propidium iodide (PI) according to the manufacturer's instructions. After staining, cells were counted using a FACSCanto II flow cytometer (BD Biosciences, San Jose, CA, USA).

STAT3 = experiment: IL-6 induced STAT3 phosphorylation, Western blot, MDA-MB-231 cells; type: cell-based, human; details: pretreated 2 hours serum-free, 50 ng/ml IL-6 30 minutes
Method: (§2) (A) The chemical structures of LLL12B and LLL12. The carbamate ester bond of LLL12B is hydrolytically cleaved by the tumor-associated plasmin to release LLL12. (B) SUM159 cells were seeded in a 6-well plate and treated with LLL12B for 8 hours. Cells were stained with Phospho-Stat3 (Tyr705) and DAPI (indicated by arrows). Green: P-STAT3 (Y705); Blue: DAPI. T47D (C) and MDA-MB-231 (D) breast cancer cells were pretreated with DMSO or LLL12B in a serum-free medium for 2 hours and stimulated with 50 ng/ml of IL-6, IFN-γ, or EGF for additional 30 minutes. Cells were collected and analyzed by Western blot. GAPDH served as a protein loading control.
(§3) Western blot. Cells were collected and total protein was extracted using cell lysis buffer (Cell Signaling Technology, Danvers, MA, USA). Protein concentration was determined using the Pierce BCA Protein Assay Kit (Thermo Fisher Scientific, Waltham, MA, USA) according to the manufacturer's instructions. Equal amounts of protein were separated by 10% SDS-PAGE gels and transferred to PVDF membranes. Membranes were blocked in 5% non-fat milk at room temperature and probed with specific antibodies P-STAT3 (Y705), STAT3, Cyclin D1, Cleaved Caspase-3, P-STAT1 (Y701), STAT1, P-ERK, ERK or GAPDH (1:1000, Cell Signaling Technology, Danvers, MA, USA) at 4° C. overnight. […]

HPAC cells = experiment: Wound healing assay, HPAC cells; type: cell-based, human; details: approximate 24 hours
Method: The inhibitory effects on cell migration by LLL12B in pancreatic cancer cells was also examined. The human HPAC pancreatic cancer cells were seeded and allowed to attach for 24 hours. Then cells were treated with different concentrations of LLL12B for approximate 24 hours and the cell migration was determined by wound healing assay.

medulloblastoma cells = details: refs [25,31]; cited from earlier work
ERK = experiment: EGF induced ERK phosphorylation, Western blot, T47D cells; type: cell-based, human; details: pretreated 2 hours, 50 ng/ml EGF 30 minutes
Method: as §2, §3

[3] = refs [25,28]; cited from earlier work
[4] = tested on: MDA-MB-231 orthotopic tumor; experiment: Orthotopic mammary fat pad tumor model in vivo; design: species or system athymic nude mice
Method: Orthotopic mammary fat pad tumor model in vivo. All mice were used under guidelines approved by the IACUC of University of Maryland School of Medicine. 6-week-old female athymic nude mice were purchased from The Jackson Laboratory (Bar Harbor, ME, USA). 2.5×10^6 MDA-MB-231 cells in 50 μl matrigel (BD Science, Franklin Lakes, NJ, USA) were inoculated into the 4th mammary fat pads bilaterally. After the tumor volume reached approximately 50 mm^3, mice were randomly divided into two groups (3 mice with 6 tumors in each group). LLL12B (2.5 mg/kg) or DMSO vehicle was administered daily by oral gavage for 28 days. Tumor size was measured by the length (L) and width (W) using a caliper ruler every 2 days. Tumor volume was calculated using 0.52×L×W^2. Body weight was monitored every 2 days. At the end of the experiment, tumors were removed and weighed. Part of the tumor tissue was lysed to detect the expression of P-STAT3 (Y705), STAT3, and Cyclin DI using Western blot analysis.
Female nude mice were implanted with MDA-MB-231 cells to establish an orthotopic tumor model to further evaluate LLL12B efficacy in vivo. MDA-MB-231 cells were inoculated into the 4th mammary fat pads and tumors were allowed to develop until the volume reached approximately 50 mm^3. Vehicle control or LLL12B (2.5 mg/kg) was administered once daily by oral gavage for 28 days.

[5] = 2.5 mg/kg once daily oral gavage 28 days, vs vehicle
[6] = Western blot, 2.5 mg/kg oral 28 days

## CN(C)C(=O)Oc1cccc2c1C(=O)c1cccc(S(N)(=O)=O)c1C2=O [LLL12B]
MDA-MB-231 cells [1]
  wound closure (cell migration): effectively inhibited
Ovarian cancer cells
  sensitization to paclitaxel and cisplatin: sensitized
4T1 cells
  wound closure (cell migration): effectively inhibited
MDA-MB-231 cells [2]
  percentage of apoptotic cells: significantly increased
STAT3
  IL-6 induced phosphorylation of STAT3 (Y705): inhibited
HPAC cells
  cell migration: significantly inhibits
Medulloblastoma cells
  apoptosis: induced apoptosis
  tumor growth: suppressed tumor growth
ERK
  induction of P-ERK stimulated by EGF: did not inhibit
[3]
  in vivo pharmacokinetic properties compared to LLL12: superior
[4]; [5]
  body weights: no obvious reduction
  tumor volume: significantly reduced
  tumor weight: reduced
[4]; [6]
  Cyclin D1 expression in tumor tissues: suppressed
  phosphorylation of STAT3 (Y705) in tumor tissues: suppressed
